# In patent US20190136321A1, “USE OF TRANSLATIONAL PROFILING TO IDENTIFY TARGET MOLECULES FOR THERAPEUTIC TREATMENT” (The Regents of The University of California, priority 2013, published 2019):
# Test system: Pten^L/L mice
# Assay: Pharmacological treatment of Pten^L/L mice (preclinical trial, prostate cancer)
# Assay type: in vivo, mouse
# Description: Pten^loxp/loxp and Pb-cre mice where obtained from Jackson Laboratories and Mouse Models of Human Cancers Consortium (MMHCC), respectively, and maintained in the C57BL/6 background. Mice were maintained under specific pathogen-free conditions, and experiments were performed in compliance with institutional guidelines as approved by the Institutional Animal Care and Use Committee of UCSF.
# Weight measurements were taken every 3 days to monitor for toxicity. For the 28-day study, mice were imaged via […] at day 0 and day 28 in a 14-T GE MR scanner (GE Healthcare).
# Whole mouse prostates were removed from wild-type and Pten^L/L mice, microdissected, and frozen in liquid nitrogen. Frozen tissues were subsequently manually disassociated using a biopulverizer (Biospec) and additionally processed for protein and mRNA analysis as described above.
# Prostates and lymph nodes were dissected from mice within 2 hr of the indicated treatment and fixed in 10% formalin overnight at 4° C. Tissues were subsequently dehydrated in ethanol (Sigma) at room temperature, mounted into paraffin blocks, and sectioned at […] Specimens were de-paraffinized and rehydrated using CitriSolv (Fisher) followed by serial ethanol washes. […] Sections were washed in distilled water followed by TBS washes. The sections were then incubated in 5% goat serum, 1% BSA in TBS for 1 hr at room temperature. Various primary antibodies were used, including those specific for keratin 5 (Covance), cytokeratin 8 (Abcam and Covance), YB1 (Abcam), vimentin (Abcam), MTA1 (Cell signaling), CD44 (BD Pharmingen), and the androgen receptor (Epitomics), which were diluted 1:50-1:500 in blocking solution and incubated on sections overnight at 4° C. Specimens were then washed in TBS and incubated with the appropriate Alexa 488 and 594 labeled secondary (Invitrogen) at 1:500 for 2 hr at room temperature, with the exception of YB1 which was incubated with biotinylated anti-rabbit secondary (Vector) followed by incubation with Alexa 594 labeled Streptavidin (Invitrogen). A final set of washes in TBS was completed at room temperature followed by mounting with DAPI Hardset Mounting Medium (Vector Lab). A Zeiss Spinning Disc confocal (Zeiss, CSU-X1) was used to image the sections at 40×-100×. Individual prostate cells were quantified for mean fluorescence intensity (m.f.i.) using the Axiovision (Zeiss, Release 4.8) densitometric tool.
# Mouse lymph nodes were processed as described above and stained for CK8 and androgen receptor. Lymph nodes were imaged using a Zeiss AX10 microscope. Metastases were identified and areas were measured using the Axiovision (Zeiss, Release 4.8) measurement tool.
# Immunohistochemistry was performed as described above (see “Immunofluorescence”) with the exception that immediately after antigen […] and TBS washes, specimens were incubated in 3% hydrogen peroxide in TBS followed by TBS washes. The following primary antibodies were used: phospho-AKT^S473 (Cell Signaling), phospho-rpS6^S240/244 (Cell Signaling), phospho-4EBP1^T37/46 (Cell Signaling), phospho-histone H3 (Upstate), and cleaved caspase (Cell Signaling). This was followed by TBS washes and incubation with the appropriate biotinylated secondary antibody (Vector Lab) for 30 min at room temperature. An ABC-HRP Kit (Vector Lab) was used to amplify the signal, followed by a brief incubation in hydrogen peroxide. The protein of interest was detected using DAB (Sigma). Specimens were counterstained with haematoxylin (Thermo Scientific), dehydrated with Citrisolv (Fisher), and mounted with Cytoseal XYL (Vector Lab).
# Paraffin-embedded prostate specimens were deparaffinized and rehydrated as described above (see “Immunofluorescence”), stained with haematoxylin (Thermo Scientific), and washed with water. This was followed by a brief incubation in differentiation RTU (VWR) and two washes with water followed by two 70% ethanol washes. […]
# [1] = Pten^L/L mice, ATP site inhibitor of mTOR 1 mg/kg daily, RAD001 10 mg/kg daily
structure (smiles),measurement,setting,value
CC(C)n1nc(-c2ccc3oc(N)nc3c2)c2c(N)ncnc21 [ATP site inhibitor of mTOR],prostate cancer volume,"Pten^L/L mice, 1 mg/kg daily, 28-day treatment, MRI",marked reduction
same,decrease in prostatic intraepithelial neoplasia (PIN) lesions,"Pten^L/L mice, 1 mg/kg daily, 28 days",50%
same,4EBP1 and p70S6K1/2 phosphorylation,"Pten^L/L mice, 28 days, ATP site inhibitor of mTOR 1 mg/kg daily, RAD001 10 mg/kg daily",completely restored to wild-type levels
same,progression of invasive prostate cancer locally in the prostate gland,"Pten^L/L mice, 60 days of treatment",completely blocked
same,total number and size of distant metastases,"Pten^L/L mice, draining lymph nodes, 60 days of treatment",profoundly inhibited
same,apoptosis (cleaved caspase 3),[1],tenfold increase
same,proliferation (phospho-histone H3),[1],decreased
same,"expression of YB1, vimentin, CD44, and MTA1 at the protein, but not transcript, level",specific epithelial cell types within pre-invasive PIN lesions in Pten^L/L mice,marked decrease
